Measurements from US9018213B2, “Alicyclic[c] benzopyrone derivatives and uses thereof” (Huazhong University of Science & Technology, priority 2011, dated 2015).
Read-outs that look alike come from different tables or passages of the source.

What was measured:
D2 receptor = D2 receptor (Rattus norvegicus (Rat), UniProt P61169); experiment: D2 receptor inhibition binding assay (3H-Spiperone); conditions: read-out: D2 inhibition %
Protocol: Rats were sacrificed by cervical dislocation on ice. Cerebral cortex was rapidly taken, and 2 cerebral cortexes were combined into a centrifuge tube, to which 3 ml of buffer (0.05 M Tris-HCl buffer, containing NaCl 120 mM, KCl 5 mM, MgCl2 1 mM, CaCl2 1 mM) was added, homogenization was conducted for 3-4 s at level 4 for four times, and then 5 ml of buffer was then added. The weight of the homogenized tubes were adjusted using a balance, and centrifugation was conducted at 12000 r, 4° C. for 20 min. The supernatant was discarded, and 3 ml of B solution was added. Vortex mixer was used for blending, and then 5 ml of B solution was added. Centrifugation was conducted and repeated 3 times. After the centrifugations, the supernatant was discarded, and the pellets were stored at −80° C. for future use.
Beckman LS-6500 Multi-function Liquid Scintillation Counter was used.
(1) The prepared membrane was first applied with appropriate amount of homogenized liquid, and homogenizer was used for evenly dispersing. 15 tubes were mixed into a 100 ml container, and appropriate amount of homogenized liquid was added to give 50 ml of membrane suspension, which was reserved for future use.
(2) 100 μL of membrane preparation and 100 μL of buffer were added into each reaction tube.
(3) 100 μL of homogenized liquid was added into the total binding tube (TB), 100 μL of Butaclamol (final concentration 10^−5 M) was added into the non-specific binding tube (NB), and 100 μL of the test compound (final concentration 10^−5 M) was added into the specific binding tube (SB) for each compound.
(5) Each of the reaction tubes was incubated at 37° C. for 20 min. After the reaction was completed, the bound ligands were rapidly filtered under reduced pressure, and the ice-chilled assay buffer was used for adequate washing. The filter was taken out and put into a 3 ml scintillation vial, and 2 ml of toluene scintillation solution was added and blended.
(6) The scintillation vials were put into Liquid Scintillation Counter for counting. Inhibitory rate (I %)=(Total binding tube cpm−compound cpm)/(Total binding tube cpm−non-specific binding tube cpm)×100%
Each assay for the compounds was conducted in duplicate.

5HT1A receptor = 5HT1A receptor (Rattus norvegicus (Rat), UniProt P19327); experiment: 5HT1A receptor binding assay (3H-8-OH-DPAT); conditions: test compound final concentration 10^-5 M
Sequence of 5HT1A receptor (P19327 whole entry): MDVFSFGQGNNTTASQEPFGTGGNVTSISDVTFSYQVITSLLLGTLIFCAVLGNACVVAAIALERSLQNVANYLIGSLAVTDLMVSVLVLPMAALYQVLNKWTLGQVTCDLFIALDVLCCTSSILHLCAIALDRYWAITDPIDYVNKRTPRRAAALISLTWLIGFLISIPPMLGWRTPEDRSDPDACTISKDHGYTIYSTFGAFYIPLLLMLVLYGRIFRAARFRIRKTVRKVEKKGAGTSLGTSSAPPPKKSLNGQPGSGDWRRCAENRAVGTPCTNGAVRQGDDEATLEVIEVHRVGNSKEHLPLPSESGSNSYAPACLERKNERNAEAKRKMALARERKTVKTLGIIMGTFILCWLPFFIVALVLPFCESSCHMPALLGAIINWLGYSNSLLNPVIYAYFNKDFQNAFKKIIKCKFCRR
Protocol: Preparation of 5HT1A Membrane
Incubation at 37° C. was conducted for 10 min, the weight of the tubes were adjusted using a balance after incubation. […] Centrifugation was conducted and repeated 3 times.
Materials for the Receptor Binding Assay

5HT2A receptor = 5HT2A receptor (Rattus norvegicus (Rat), UniProt P14842); experiment: 5HT2A receptor binding assay ([3H]-Ketanserin); conditions: read-out: 5HT2A inhibition %
Sequence of 5HT2A receptor (P14842 whole entry): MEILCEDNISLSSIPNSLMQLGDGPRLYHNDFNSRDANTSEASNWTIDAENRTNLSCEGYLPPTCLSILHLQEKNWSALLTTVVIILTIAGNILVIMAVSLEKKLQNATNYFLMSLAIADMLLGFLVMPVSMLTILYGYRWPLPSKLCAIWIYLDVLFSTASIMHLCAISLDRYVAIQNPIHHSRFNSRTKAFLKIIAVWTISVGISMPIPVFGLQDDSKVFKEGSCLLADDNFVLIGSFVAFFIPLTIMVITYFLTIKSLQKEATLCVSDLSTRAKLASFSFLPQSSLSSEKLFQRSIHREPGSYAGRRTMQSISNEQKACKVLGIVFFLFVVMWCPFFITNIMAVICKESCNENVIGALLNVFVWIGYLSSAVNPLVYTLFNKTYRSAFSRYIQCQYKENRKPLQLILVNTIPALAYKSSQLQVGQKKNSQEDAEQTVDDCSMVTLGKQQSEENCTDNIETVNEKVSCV

mice of Kunming breed = experiment: MK-801 induced high activity; format: in vivo; conditions: po, mice; for ED50: Mus musculus
Protocol: Healthy mice of Kunming breed (with half male and half female, (20±2) g) were provided by Qinglongshan Animal Cultivation Center, Nanjing.
Ascorbic acid was provided by Sinopharm Chemical Reagent Co. Ltd.
Tween 80, with the concentration of 10%.
Subsequently, the spontaneous activities of the mice of each group in 90 min were measured.

in vivo [1] = conditions: both, Kunming (KM), mouse, po
Protocol: Healthy mice of Kunming breed (with half male and half female, (22±2) g) were provided by Qinglongshan Animal Cultivation Center, Nanjing.
The durations for the mice to maintain the posture with the two forepaws on the bars were recorded, and 30 s of spasticity without moving was considered as the positive response. In the case the forepaws of the mice were not put down persistently, the observation was terminated at 60 s. The numbers of animals with positive response in each of the compound dosage groups were counted.

KM mice = experiment: Apomorphine induced clambering assay of mice; format: in vivo; conditions: for ED50: Mus musculus, read-out: apomorphine induced clambering ED50; for Scoring (value), apomorphine induced clambering: x ± s, n = 10
Protocol: Apomorphine Induced Clambering Assay of Mice
Healthy KM mice (male, with body weight of 18-22 g) were provided by Qinglongshan Animal Cultivation Center, Nanjing.
Apomorphine provided by Sigma Company was dissolved in 0.9% NaCl (containing 0.1% vitamin C) before use, and was freshly formulated before use.
Vitamin C, F20061113, was provided by Sinopharm Chemical Reagent Co. Ltd.
Sodium chloride injection, H32026305, was provided by Xuzhou No. 5 Pharmaceutical Factory Co. Ltd.
Instruments: self-made clambering cage, chronograph.
Procedures: apomorphine induced clambering assay of mice
After 5 min of adaptation, the behaviors of the mice at 10-11, 20-21, and 30-31 min after the injection of apomorphine were observed and scored. Scoring criteria: 4 paws on the floor was scored as 0; 2 forepaws on the cage was scored as 1; and 4 paws on the cage was scored as 2.

in vivo [2] = conditions: both sexes, mouse, in vivo, po
Protocol: Limit Test of Sequential Assay
KM mice (half male and half female) were randomly divided into several groups (with 2-5 mice in each group), which were respectively the 2000 mg/kg groups for each compound, and the solvent group. 0.2 ml/10 g were administered intragastrically. The death of the animals in 3 days were observed. (In the case 3 or more animals survived in 3 days without notable abnormity in their life states, the observation was continued until the assay was completed in 7 days. In the case 3 or more animals died in 3 days, the median lethal dose method was used to determine the LD50).
Pre-Assay for the Median Lethal Dose Method
0.2 ml/10 g were administered intragastrically, and the death of the animals in 1-3 days were observed.

Sequence of D2 receptor (P61169 whole entry): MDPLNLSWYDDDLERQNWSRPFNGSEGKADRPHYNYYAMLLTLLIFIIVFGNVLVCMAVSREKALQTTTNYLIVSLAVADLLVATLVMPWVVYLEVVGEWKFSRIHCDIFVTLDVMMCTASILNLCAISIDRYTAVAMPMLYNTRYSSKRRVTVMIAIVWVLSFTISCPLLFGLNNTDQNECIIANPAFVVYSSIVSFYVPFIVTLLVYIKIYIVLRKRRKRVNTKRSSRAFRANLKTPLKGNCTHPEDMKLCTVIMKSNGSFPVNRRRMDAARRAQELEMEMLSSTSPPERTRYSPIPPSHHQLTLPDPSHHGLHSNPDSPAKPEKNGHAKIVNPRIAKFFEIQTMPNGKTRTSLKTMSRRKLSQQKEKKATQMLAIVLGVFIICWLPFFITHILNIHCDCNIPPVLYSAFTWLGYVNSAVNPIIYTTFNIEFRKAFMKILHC

| Compound | inhibition at 10 µM (D2 receptor) [%] | inhibition at 10 µM (5HT1A receptor) [%] | inhibition at 10 µM (5HT2A receptor) [%] | further results |
| --- | --- | --- | --- | --- |
| Cc1cccc(N2CCN(CCCOc3ccc4c5c(c(=O)oc4c3)CCC5)CC2)c1C [Compound 1, 7-{3-[4-(2,3-dimethylphenyl)piperazin-1-yl]-propoxy}-2,3-dihydro-1H-cyclopenteno[c]benzopyran-4-one] | 3.3 | 103 | 82.9 | – |
| O=c1oc2cc(OCCCN3CCN(c4cccc(Cl)c4Cl)CC3)ccc2c2c1CCC2 [Compound 2, 7-{3-[4-(2,3-dichlorophenyl)piperazin-1-yl]-propoxy}-2,3-dihydro-1H-cyclopenteno[c]benzopyran-4-one] | 11.5 | 65.8 | 14.3 | – |
| O=c1oc2cc(OCCCN3CCN(c4cccc(C(F)(F)F)c4)CC3)ccc2c2c1CCC2 [Compound 3, 7-{3-[4-(3-trifluoromethylphenyl)piperazin-1-yl]-propoxy}-2,3-dihydro-1H-cyclopenteno[c]benzopyran-4-one] | 17.2 | 104 | 62.2 | – |
| COc1ccccc1N1CCN(CCCOc2ccc3c4c(c(=O)oc3c2)CCC4)CC1 [Compound 4, 7-{3-[4-(2-methoxyphenyl)piperazin-1-yl]-propoxy}-2,3-dihydro-1H-cyclopenteno[c]benzopyran-4-one] | 50.2 | 116 | 112 | – |
| COc1ccccc1N1CCN(CCCOc2ccc3c4c(c(=O)oc3c2C)CCC4)CC1 [Compound 6, 7-{3-[4-(2-methoxyphenyl)piperazin-1-yl]-propoxy}-6-methyl-2,3-dihydro-1H-cyclopenteno[c]benzopyran-4-one] | 4.7 | 95.5 | 75.4 | – |
| COc1ccc(N2CCN(CCCCOc3ccc4c5c(c(=O)oc4c3)CCC5)CC2)cc1 [Compound 8, 7-{4-[4-(4-methoxyphenyl)piperazin-1-yl]-butoxy}-2,3-dihydro-1H-cyclopenteno[c]benzopyran-4-one] | 26.4 | 62.8 | 23.4 | – |
| O=c1oc2cc(OCCCCN3CCN(c4ccc(F)cc4)CC3)ccc2c2c1CCC2 [Compound 9, 7-{4-[4-(4-fluorophenyl)piperazin-1-yl]-butoxy}-2,3-dihydro-1H-cyclopenteno[c]benzopyran-4-one] | 15.2 | 104 | 119 | – |
| O=c1oc2cc(OCCCCN3CCC(c4noc5cc(F)ccc45)CC3)ccc2c2c1CCC2 [Compound 10, 7-{4-[4-(3-(6-fluoro-benzisoxazole)-1-piperidyl)-butoxy]}-2,3-dihydro-1H-cyclopenteno[c]benzopyran-4-one] | 5.7 | 42.5 | 68.4 | – |
| COc1ccccc1N1CCN(CCCCOc2ccc3c4c(c(=O)oc3c2C)CCC4)CC1 [Compound 11, 7-{4-[4-(2-methoxyphenyl)piperazin-1-yl]-butoxy}-6-methyl-2,3-dihydro-1H-cyclopenteno[c]benzopyran-4-one] | 59.2 | 106 | 105 | – |
| Cc1c(OCCCCN2CCN(c3nsc4ccccc34)CC2)ccc2c3c(c(=O)oc12)CCC3 [Compound 12, 7-{4-[4-(3-(1,2-benzisothiazole)-1-piperazinyl)-butoxy]}-6-methyl-2,3-dihydro-1H-cyclopenteno[c]benzopyran-4-one] | 61.2 | 104 | 107 | – |
| COc1ccccc1N1CCN(CCCCOc2ccc3c4c(c(=O)oc3c2Cl)CCC4)CC1 [Compound 13, 7-{4-[4-(2-methoxyphenyl)piperazin-1-yl]-butoxy}-6-chloro-2,3-dihydro-1H-cyclopenteno[c]benzopyran-4-one] | 59.2 | 106 | 105 | – |
| O=c1oc2cc(OCCCCN3CCC(c4noc5cc(F)ccc45)CC3)c(Cl)cc2c2c1CCC2 [Compound 16, 7-{4-[4-(3-(6-fluoro-benzisoxazole)-1-piperidyl)-butoxy]}-8-chloro-2,3-dihydro-1H-cyclopenteno[c]benzopyran-4-one] | 51.5 | 55.3 | 88.4 | – |
| COc1ccccc1N1CCN(CCCCOc2cc3oc(=O)c4c(c3cc2Cl)CCC4)CC1 [Compound 17, 7-{4-[4-(2-methoxyphenyl)piperazin-1-yl-butoxy]}-8-chloro-2,3-dihydro-1H-cyclopenteno[c]benzopyran-4-one] | 15.4 | 115 | 104 | – |
| O=c1oc2cc(OCCCCN3CCC(c4noc5cc(F)ccc45)CC3)ccc2c2c1CCCC2 [Compound 18, 3-{4-[4-(3-(6-fluoro-benzisoxazole)-1-piperidyl)-butoxy]}-7,8,9,10-tetrahydrobenzo[c]benzopyran-6-one] | 80.6 | 46.6 | 114 | – |
| COc1ccccc1N1CCN(CCCCOc2ccc3c4c(c(=O)oc3c2C)CCCC4)CC1 [Compound 20, 3-{4-[4-(2-methoxyphenyl)piperazin-1-yl]-butoxy}-4-methyl-7,8,9,10-tetrahydrobenzo[c]benzopyran-6-one] | 66.4 | 100 | 90.7 | – |
| O=C1CCc2ccc(OCCCCN3CCN(c4cccc(Cl)c4Cl)CC3)cc2N1 [aripiprazole] | – | – | – | ED50 (mice of Kunming breed): 0.12 mg/kg; ED50 (in vivo [1]): 2.4 mg/kg; ED50 (KM mice; po, mice): 0.66 mg/kg; Scoring (value), apomorphine induced clambering (KM mice; dosage 0.3 mg/kg): 4.50 ± 1.51; Scoring (value), apomorphine induced clambering (KM mice; dosage 1 mg/kg): 1.5 ± 1.08; Scoring (value), apomorphine induced clambering (KM mice; dosage 3 mg/kg): 2.30 ± 1.57; Scoring (value), apomorphine induced clambering (KM mice; dosage 10 mg/kg): 0.20 ± 0.42; LD50 (in vivo [2]; KM): 93 mg/kg |
| Cc1cc2c(s1)Nc1ccccc1N=C2N1CCN(C)CC1 [olanzapine] | – | – | – | ED50 (KM mice; po): 0.11 mg/kg; Scoring (value), apomorphine induced clambering (KM mice; dosage 0.1 mg/kg): 5.00 ± 1.25; Scoring (value), apomorphine induced clambering (KM mice; dosage 0.3 mg/kg): 2.10 ± 1.10; Scoring (value), apomorphine induced clambering (KM mice; dosage 1 mg/kg): 1.30 ± 1.25; Scoring (value), apomorphine induced clambering (KM mice; dosage 3 mg/kg): 0.30 ± 0.48 |
| OCCOCCN1CCN(C2=Nc3ccccc3Sc3ccccc32)CC1 [quetiapine] | – | – | – | MK-801 induced high activity ED50 (mice of Kunming breed): 10.1 mg/kg; ED50 (in vivo [1]): 800 mg/kg; Scoring (value), apomorphine induced clambering (KM mice; dosage 3 mg/kg): 4.00 ± 2.05; Scoring (value), apomorphine induced clambering (KM mice; dosage 10 mg/kg): 3.00 ± 1.63; Scoring (value), apomorphine induced clambering (KM mice; dosage 30 mg/kg): 4.00 ± 2.31; Scoring (value), apomorphine induced clambering (KM mice; dosage 100 mg/kg): 2.60 ± 2.55; Scoring (value), apomorphine induced clambering (KM mice; dosage 300 mg/kg): 0.50 ± 1.07; apomorphine induced clambering ED50 (KM mice; po, mice): 2.02 mg/kg; LD50 (in vivo [2]; KM): 800 mg/kg |
| Cc1nc2n(c(=O)c1CCN1CCC(c3noc4cc(F)ccc34)CC1)CCCC2 [risperidone] | – | – | – | ED50 (KM mice; po): 0.015 mg/kg; effect on apomorphine induced clambering symptoms (in words) (KM mice; compared to the model group): effectively improve; Scoring (value), apomorphine induced clambering (KM mice; dosage 0.01 mg/kg): 5.20 ± 1.87; Scoring (value), apomorphine induced clambering (KM mice; dosage 0.03 mg/kg): 2.70 ± 1.77; Scoring (value), apomorphine induced clambering (KM mice; dosage 0.1 mg/kg): 1.80 ± 1.32; Scoring (value), apomorphine induced clambering (KM mice; dosage 0.3 mg/kg): 0.20 ± 0.63 |
| O=C1Cc2cc(CCN3CCN(c4nsc5ccccc45)CC3)c(Cl)cc2N1 [ziprasidone] | – | – | – | ED50 (mice of Kunming breed): 0.56 mg/kg; ED50 (in vivo [1]): 30.4 mg/kg; ED50 (KM mice; po, mice): 0.37 mg/kg; Scoring (value), apomorphine induced clambering (KM mice; dosage 0.3 mg/kg): 4.40 ± 2.01; Scoring (value), apomorphine induced clambering (KM mice; dosage 1 mg/kg): 3.80 ± 1.40; Scoring (value), apomorphine induced clambering (KM mice; dosage 3 mg/kg): 0.70 ± 1.16; Scoring (value), apomorphine induced clambering (KM mice; dosage 10 mg/kg): 0.40 ± 0.84; LD50 (in vivo [2]; mice, single intragastric administration, read-out: LD50): > 2000 mg/kg |
